This passage reports IC50 results from US6924302B2, “Substituted triazole diamine derivatives as kinase inhibitors” (Ortho McNeil Pharmaceutical, Inc., priority 2000, dated 2005).

Type in all cases: biochemical
One assay addresses Insulin Receptor Kinase (Homo sapiens, UniProt P06213). Kind of assay: Kinase Selectivity Assay Insulin Receptor Kinase. As to conditions: Kinase Selectivity, Tables 2a-2k; read-out: Insulin R Kinase IC50. Put shortly:
(§1)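 Inhibition was measured as reduced ^33P-γ-ATP labelling of a biotinylated peptide substrate immobilized on streptavidin plates after one hour at 30° C.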

In assay [1] the target is T1, Casein Kinase 2 (alpha and beta subunits) (Homo sapiens, UniProt P68400).
T1 construct: purchased New England Biolabs 6010; host or cells: E. coli
T1 sequence (P68400 whole entry): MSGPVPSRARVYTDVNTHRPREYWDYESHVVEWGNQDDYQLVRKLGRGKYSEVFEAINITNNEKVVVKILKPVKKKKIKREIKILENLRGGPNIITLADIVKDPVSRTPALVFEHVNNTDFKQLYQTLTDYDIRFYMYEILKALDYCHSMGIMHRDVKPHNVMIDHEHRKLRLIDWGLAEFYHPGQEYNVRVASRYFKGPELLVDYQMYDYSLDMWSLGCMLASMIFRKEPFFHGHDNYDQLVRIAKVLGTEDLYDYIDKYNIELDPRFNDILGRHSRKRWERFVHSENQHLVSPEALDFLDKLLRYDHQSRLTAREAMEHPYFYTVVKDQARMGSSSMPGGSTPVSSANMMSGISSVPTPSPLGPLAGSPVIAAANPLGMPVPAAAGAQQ
T1 sequence (P67870 whole entry partner): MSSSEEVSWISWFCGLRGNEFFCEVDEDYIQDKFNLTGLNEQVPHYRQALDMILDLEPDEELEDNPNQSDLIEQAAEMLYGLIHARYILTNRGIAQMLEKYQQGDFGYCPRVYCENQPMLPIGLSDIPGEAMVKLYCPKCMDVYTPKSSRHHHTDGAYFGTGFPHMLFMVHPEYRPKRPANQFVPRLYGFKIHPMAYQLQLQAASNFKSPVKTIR
As to the kind of experiment: Kinase Selectivity Assay Casein Kinase 2. To be noted: Kinase Selectivity, Tables 2a-2k; read-out: Caseine Kinase 2 IC50. Put shortly: as §1

The target in a further assay is T2, CDK1:Cyclin-B (Homo sapiens, UniProt P06493).
T2 construct: purchased New England Biolabs 6020; host or cells: insect cells
T2 sequence (P06493 whole entry): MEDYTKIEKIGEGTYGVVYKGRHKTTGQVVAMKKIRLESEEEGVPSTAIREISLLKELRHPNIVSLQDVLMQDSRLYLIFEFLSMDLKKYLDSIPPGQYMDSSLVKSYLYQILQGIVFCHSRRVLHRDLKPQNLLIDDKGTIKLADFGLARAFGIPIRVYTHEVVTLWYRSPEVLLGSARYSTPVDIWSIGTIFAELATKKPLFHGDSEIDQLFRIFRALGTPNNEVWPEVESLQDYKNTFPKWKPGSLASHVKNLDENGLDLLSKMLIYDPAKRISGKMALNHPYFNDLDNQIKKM
T2 sequence (P14635 whole entry partner): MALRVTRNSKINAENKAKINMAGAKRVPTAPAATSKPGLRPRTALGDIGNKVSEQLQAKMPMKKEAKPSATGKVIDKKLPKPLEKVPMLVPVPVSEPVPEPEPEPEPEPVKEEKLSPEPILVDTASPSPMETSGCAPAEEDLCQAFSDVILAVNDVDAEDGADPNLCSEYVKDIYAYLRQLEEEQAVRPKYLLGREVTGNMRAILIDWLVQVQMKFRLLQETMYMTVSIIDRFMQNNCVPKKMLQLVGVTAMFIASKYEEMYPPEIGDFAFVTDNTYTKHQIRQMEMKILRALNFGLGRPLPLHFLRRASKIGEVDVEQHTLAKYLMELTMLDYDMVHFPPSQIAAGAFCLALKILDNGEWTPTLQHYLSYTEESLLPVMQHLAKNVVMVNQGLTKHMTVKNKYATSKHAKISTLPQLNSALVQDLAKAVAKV
Kind of assay: CDK1 Screening Assay. To be noted: read-out: CDK1 IC50. An outline of the steps:
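Human CDK1:cyclin-B (30 ng/well) with biotinylated histone-H1 peptide and ^33P-γ-ATP, 1 h at 30° C, 1% DMSO, on streptavidin FlashPlate; incorporation read by scintillation.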

For assay [2], the target named is T3, Calmodulin Kinase (calmodulin-dependent protein kinase 2) (Rattus norvegicus, UniProt P11275).
T3 construct: a truncated version of the alpha subunit of the rat protein; purchased New England Biolabs 6060; host or cells: insect cells
Kind of assay: Kinase Selectivity Assay Calmodulin Kinase. As to conditions: Kinase Selectivity, Tables 2a-2k; read-out: Calmodulin Kinase 2 IC50. An outline of the steps:
as §1

Assay [3] addresses T4, Casein Kinase 1 (CK1 delta isoform) (Rattus norvegicus, UniProt Q06486).
T4 construct: a truncation at amino acid 318 of the C-terminal portion of the rat CK1 delta isoform; purchased New England Biolabs 6030; host or cells: E. coli
T4 sequence (Q06486 1-317): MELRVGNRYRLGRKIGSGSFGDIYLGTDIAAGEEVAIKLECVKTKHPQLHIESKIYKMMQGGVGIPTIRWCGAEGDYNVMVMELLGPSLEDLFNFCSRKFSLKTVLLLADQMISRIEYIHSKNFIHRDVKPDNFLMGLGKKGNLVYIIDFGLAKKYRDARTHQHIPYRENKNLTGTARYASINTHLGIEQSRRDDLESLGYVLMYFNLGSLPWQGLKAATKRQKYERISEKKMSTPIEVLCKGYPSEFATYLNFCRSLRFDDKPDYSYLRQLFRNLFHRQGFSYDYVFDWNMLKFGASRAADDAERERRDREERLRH
As to the kind of experiment: Kinase Selectivity Assay Casein Kinase 1. As to conditions: Tables 2a-2k, read-out: Caseine Kinase 1 IC50. Put shortly:
as §1

Assay [4] addresses T5, MAP Kinase (ERK-2 isoform) (Rattus norvegicus, UniProt P63086).
T5 construct: polyhistidine (N); host or cells: E. coli
Kind of assay: Kinase Selectivity Assay MAP Kinase (ERK-2). To be noted: Kinase Selectivity, Tables 2a-2k; read-out: ERK 2 IC50. An outline of the steps:
as §1

The mark [5] stands for this setting: Kinase Selectivity, Tables 2a-2k.

Read-outs that look alike come from different tables or passages of the source. Where only a bound is given, the exact number is not on record here.

Insulin Receptor Kinase, sequence (P06213 980-1352): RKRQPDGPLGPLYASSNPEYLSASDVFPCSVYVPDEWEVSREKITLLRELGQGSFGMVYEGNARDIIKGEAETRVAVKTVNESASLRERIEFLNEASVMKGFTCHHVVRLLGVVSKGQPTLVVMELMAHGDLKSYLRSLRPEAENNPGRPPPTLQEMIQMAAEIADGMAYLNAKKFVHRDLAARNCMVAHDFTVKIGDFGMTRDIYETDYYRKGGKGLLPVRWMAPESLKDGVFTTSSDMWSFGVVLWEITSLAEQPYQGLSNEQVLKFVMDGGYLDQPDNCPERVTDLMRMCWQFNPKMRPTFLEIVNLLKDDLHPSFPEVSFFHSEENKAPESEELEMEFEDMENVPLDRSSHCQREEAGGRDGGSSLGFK
T5 sequence (P63086 whole entry, canonical isoform): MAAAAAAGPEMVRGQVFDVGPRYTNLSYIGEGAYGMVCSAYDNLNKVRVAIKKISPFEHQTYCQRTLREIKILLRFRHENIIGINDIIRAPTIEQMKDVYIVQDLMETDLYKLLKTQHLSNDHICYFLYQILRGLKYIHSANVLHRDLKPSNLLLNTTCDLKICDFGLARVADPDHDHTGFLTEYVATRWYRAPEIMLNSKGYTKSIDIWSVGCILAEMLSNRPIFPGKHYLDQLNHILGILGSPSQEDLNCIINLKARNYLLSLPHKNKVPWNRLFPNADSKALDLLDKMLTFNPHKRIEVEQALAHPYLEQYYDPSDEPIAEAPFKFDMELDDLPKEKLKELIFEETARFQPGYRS

For `Nc1nc(Nc2ccc(S(N)(=O)=O)cc2)nn1C(=O)c1c(F)cccc1F` [Cpd 1, 4-[[5-amino-1-(2,6-difluorobenzoyl)-1H-1,2,4-triazol-3-yl]amino]-benzenesulfonamide], the IC50 (in general, the concentration that gives 50% inhibition) at Insulin Receptor Kinase is over 100 µM; in assay [1], over 100 µM; on CDK1:Cyclin-B (setting [5]) it was 6 nM; on CDK1:Cyclin-B (Table 1), 6.4 nM; in assay [2] it was over 100 µM.
Turning to `Nc1nc(Nc2ccc(S(N)(=O)=O)cc2)nn1C(=O)c1cccs1` [Cpd 14, 4-[[5-amino-1-(2-thienylcarbonyl)-1H-1,2,4-triazol-3-yl]amino]-benzenesulfonamide], the IC50 amounted to 348 nM in assay [3]; 1.2 µM on Insulin Receptor Kinase; 8.05 µM in assay [1]; 4.5 nM on CDK1:Cyclin-B (setting [5]); 4.5 nM at CDK1:Cyclin-B (Table 1); 2.14 µM in assay [4]. For the same molecule, the IC50 in assay [2] is 60.4 µM.
Consider `Nc1nc(Nc2ccc(S(N)(=O)=O)cc2)nn1C(=O)c1sccc1F` [Cpd 16, 4-[[5-amino-1-[(3-fluoro-2-thienyl)carbonyl]-1H-1,2,4-triazol-3-yl]amino]-benzenesulfonamide], for which the half-inhibitory concentration (IC50) in assay [3] is 214 nM; at Insulin Receptor Kinase, over 100 µM; in assay [1] it was over 100 µM; at CDK1:Cyclin-B (setting [5]), 21 nM; at CDK1:Cyclin-B (Table 1), 2.1 nM; in assay [4], 0.39 µM. The IC50 in assay [2] was over 100 µM.
In the case of `Nc1nc(Nc2ccc(S(N)(=O)=O)cc2)nn1C(=O)c1sccc1Cl` [Cpd 17, 4-[[5-amino-1-[(3-chloro-2-thienyl)carbonyl]-1H-1,2,4-triazol-3-yl]amino]-benzenesulfonamide], the IC50 amounted to 643 nM in assay [3]; 2.02 µM at Insulin Receptor Kinase; 2.65 µM in assay [1]; 2.5 nM on CDK1:Cyclin-B (setting [5]); 2.5 nM on CDK1:Cyclin-B (Table 1); 1.87 µM in assay [4]. Further, in assay [2], the IC50 came to 2.8 µM.
As for `Nc1nc(Nc2ccc(S(=O)(=O)N3CCCCC3)cc2)nn1C(=O)c1cccs1` [Cpd 23, N^3-[4-(1-piperidinylsulfonyl)phenyl]-1-(2-thienylcarbonyl)-1H-1,2,4-triazole-3,5-diamine], the IC50 in assay [3] was 113 nM; on Insulin Receptor Kinase, over 100 µM; in assay [1] it was over 100 µM; on CDK1:Cyclin-B (setting [5]), 89 nM; at CDK1:Cyclin-B (Table 1), 88.9 nM; in assay [4], 1.62 µM. For the same molecule, the IC50 in assay [2] worked out at 10.5 µM.
With `Nc1nc(Nc2ccc(S(N)(=O)=O)cc2)nn1C(=O)c1ccsc1` [Cpd 30, 4-[[5-amino-1-(3-thienylcarbonyl)-1H-1,2,4-triazol-3-yl]amino]-benzenesulfonamide], the IC50 in assay [3] turned out to be 1540 nM; on Insulin Receptor Kinase, 4.96 µM; in assay [1], 7.6 µM; on CDK1:Cyclin-B (setting [5]), 17 nM; at CDK1:Cyclin-B (Table 1), 17 nM; in assay [4], 5.93 µM. Moreover, the IC50 in assay [2] came out at 88.3 µM.
In the case of `CCc1ccc(C(=O)n2nc(Nc3ccc(S(N)(=O)=O)cc3)nc2N)s1` [Cpd 32, 4-[[5-amino-1-[(5-ethyl-2-thienyl)carbonyl]-1H-1,2,4-triazol-3-yl]amino]-benzenesulfonamide], the IC50 in assay [3] was 181 nM; on Insulin Receptor Kinase, 0.123 µM; in assay [1], 0.527 µM; on CDK1:Cyclin-B (setting [5]), 3 nM; on CDK1:Cyclin-B (Table 1) it was 3.1 nM; in assay [4], 0.563 µM. Also, the IC50 in assay [2] is over 100 µM.
In the case of `Cc1nc(C)c(C(=O)n2nc(Nc3ccc(S(N)(=O)=O)cc3)nc2N)s1` [Cpd 34, 4-[[5-amino-1-[(2,4-dimethyl-5-thiazolyl)carbonyl]-1H-1,2,4-triazol-3-yl]amino]-benzenesulfonamide], the IC50 was 182 nM in assay [3]; over 10 µM at Insulin Receptor Kinase; over 100 µM in assay [1]; 2 nM on CDK1:Cyclin-B (setting [5]); 1.6 nM on CDK1:Cyclin-B (Table 1); over 10 µM in assay [4]. In assay [2], the IC50 is over 100 µM.
Regarding `Nc1nc(Nc2ccc(S(N)(=O)=O)cc2)nn1C(=O)c1sccc1Br` [Cpd 35, 4-[[5-amino-1-[(3-bromo-2-thienyl)carbonyl]-1H-1,2,4-triazol-3-yl]amino]-benzenesulfonamide], the IC50 at CDK1:Cyclin-B (Table 1) was found to be 1.1 nM.
With `Nc1nc(Nc2ccc(S(N)(=O)=O)cc2)nn1C(=O)C1CCCC1` [Cpd 38, 4-[[5-amino-1-(cyclopentylcarbonyl)-1H-1,2,4-triazol-3-yl]amino]-benzenesulfonamide], the IC50 in assay [3] is 6100 nM; at Insulin Receptor Kinase it was over 100 µM; in assay [1], over 100 µM; in assay [4], 24.2 µM; in assay [2], over 100 µM.
As for `Nc1nc(Nc2ccc(S(N)(=O)=O)cc2)nn1C(=O)C1CCCCC1` [Cpd 39, 4-[[5-amino-1-(cyclohexylcarbonyl)-1H-1,2,4-triazol-3-yl]amino]-benzenesulfonamide], the IC50 in assay [3] is 4100 nM; at Insulin Receptor Kinase it was 19.4 µM; in assay [1], over 100 µM; in assay [4] it was 13.2 µM; in assay [2], over 100 µM.
In the case of `CC(C)(C)c1ccc(C(=O)n2nc(Nc3ccc(S(N)(=O)=O)cc3)nc2N)s1` [Cpd 51, 4-[[5-amino-1-[[5-(1,1-dimethylethyl)-2-thienyl]carbonyl]-1H-1,2,4-triazol-3-yl]amino]-benzenesulfonamide], the IC50 in assay [3] was determined as 223 nM; on Insulin Receptor Kinase it was 0.077 µM; in assay [1], 1.78 µM; at CDK1:Cyclin-B (setting [5]) it was 7 nM; at CDK1:Cyclin-B (Table 1), 7 nM; in assay [4], 0.928 µM. For the same molecule, the IC50 in assay [2] was found to be 0.813 µM.
Regarding `Cc1ccccc1C(=O)n1nc(Nc2ccc(S(N)(=O)=O)cc2)nc1N` [Cpd 57, 4-[[5-amino-1-(2-methylbenzoyl)-1H-1,2,4-triazol-3-yl]amino]-benzenesulfonamide], the IC50 in assay [3] is 14000 nM; on Insulin Receptor Kinase it was over 100 µM; in assay [1], over 100 µM; on CDK1:Cyclin-B (setting [5]) it was 67 nM; on CDK1:Cyclin-B (Table 1), 67 nM; in assay [4], over 100 µM. For the same molecule, the IC50 in assay [2] is over 100 µM.
With `CC(O)c1ccc(F)c(C(=O)n2nc(Nc3ccc(S(N)(=O)=O)cc3)nc2N)c1F` (centres unmarked) [Cpd 58, 4-[[5-amino-1-[2,6-difluoro-3-(1-hydroxyethyl)benzoyl]-1H-1,2,4-triazol-3-yl]amino]-benzenesulfonamide], the IC50 was 11200 nM in assay [3]; over 100 µM on Insulin Receptor Kinase; over 100 µM in assay [1]; 14 nM at CDK1:Cyclin-B (setting [5]); 14 nM at CDK1:Cyclin-B (Table 1); 10.7 µM in assay [4]. The IC50 in assay [2] was over 100 µM.
Regarding `Cc1ccc(F)c(C(=O)n2nc(Nc3ccc(S(N)(=O)=O)cc3)nc2N)c1Cl` [Cpd 69, 4-[[5-amino-1-(2-chloro-6-fluoro-3-methylbenzoyl)-1H-1,2,4-triazol-3-yl]amino]-benzenesulfonamide], the IC50 in assay [3] was 16600 nM; at Insulin Receptor Kinase, 45.1 µM; in assay [1], over 100 µM; at CDK1:Cyclin-B (setting [5]) it was 23 nM; on CDK1:Cyclin-B (Table 1), 23 nM; in assay [4] it was 12.5 µM. In assay [2], the IC50 is over 100 µM.
In the case of `CNS(=O)(=O)c1ccc(Nc2nc(N)n(C(=O)c3c(F)cccc3F)n2)cc1` [Cpd 80, 4-[[5-amino-1-(2,6-difluorobenzoyl)-1H-1,2,4-triazol-3-yl]amino]-N-methyl-benzenesulfonamide], the IC50 at CDK1:Cyclin-B (Table 1) was 45.2 nM.
For `CNS(=O)(=O)c1ccc(Nc2nc(N)n(C(=O)c3c(F)ccc(C)c3F)n2)cc1` [Cpd 81, 4-[[5-amino-1-(2,6-difluoro-3-methylbenzoyl)-1H-1,2,4-triazol-3-yl]amino]-N-methyl-benzenesulfonamide], the IC50 in assay [3] is 6960 nM; on Insulin Receptor Kinase, 29.6 µM; in assay [1], over 100 µM; in assay [4], 11.7 µM; in assay [2], over 100 µM.
For `Cc1cc(C)c(C(=O)n2nc(Nc3ccc(NS(C)(=O)=O)cc3)nc2N)s1` [Cpd 108, N-[4-[[5-amino-1-[(3,5-dimethyl-2-thienyl)carbonyl]-1H-1,2,4-triazol-3-5 yl]amino]phenyl]-methanesulfonamide], the IC50 was 816 nM in assay [3]; over 10 µM in assay [1]; 66 nM at CDK1:Cyclin-B (setting [5]); 65.7 nM at CDK1:Cyclin-B (Table 1); 2.39 µM in assay [4]; over 10 µM in assay [2].
With `Nc1nc(Nc2ccc(N3CCCS3(=O)=O)cc2)nn1C(=O)c1c(F)cccc1F` [Cpd 117], the IC50 is 13500 nM in assay [3]; over 100 µM on Insulin Receptor Kinase; over 100 µM in assay [1]; over 100 µM in assay [4]; over 100 µM in assay [2].
